The results in this text go back to US20140135319A1, “6-SUBSTITUTED IMIDAZOPYRAZINES FOR USE AS MPS-1 AND TKK INHIBITORS IN THE TREATMENT OF HYPERPROLIFERATIVE DISORDERS” (BAYER INTELLECTUAL PROPERTY GMBH, priority 2010, published 2014).

pIC50: −log10 of the molar value.

The experiment concerns the target T1, human kinase Mps-1 (Homo sapiens, UniProt P33981).
T1 construct: N-terminally GST-tagged human full length recombinant Mps-1 kinase; GST (N); purchased Invitrogen, Karslruhe, Germany PV4071
T1 sequence (P33981 1-857): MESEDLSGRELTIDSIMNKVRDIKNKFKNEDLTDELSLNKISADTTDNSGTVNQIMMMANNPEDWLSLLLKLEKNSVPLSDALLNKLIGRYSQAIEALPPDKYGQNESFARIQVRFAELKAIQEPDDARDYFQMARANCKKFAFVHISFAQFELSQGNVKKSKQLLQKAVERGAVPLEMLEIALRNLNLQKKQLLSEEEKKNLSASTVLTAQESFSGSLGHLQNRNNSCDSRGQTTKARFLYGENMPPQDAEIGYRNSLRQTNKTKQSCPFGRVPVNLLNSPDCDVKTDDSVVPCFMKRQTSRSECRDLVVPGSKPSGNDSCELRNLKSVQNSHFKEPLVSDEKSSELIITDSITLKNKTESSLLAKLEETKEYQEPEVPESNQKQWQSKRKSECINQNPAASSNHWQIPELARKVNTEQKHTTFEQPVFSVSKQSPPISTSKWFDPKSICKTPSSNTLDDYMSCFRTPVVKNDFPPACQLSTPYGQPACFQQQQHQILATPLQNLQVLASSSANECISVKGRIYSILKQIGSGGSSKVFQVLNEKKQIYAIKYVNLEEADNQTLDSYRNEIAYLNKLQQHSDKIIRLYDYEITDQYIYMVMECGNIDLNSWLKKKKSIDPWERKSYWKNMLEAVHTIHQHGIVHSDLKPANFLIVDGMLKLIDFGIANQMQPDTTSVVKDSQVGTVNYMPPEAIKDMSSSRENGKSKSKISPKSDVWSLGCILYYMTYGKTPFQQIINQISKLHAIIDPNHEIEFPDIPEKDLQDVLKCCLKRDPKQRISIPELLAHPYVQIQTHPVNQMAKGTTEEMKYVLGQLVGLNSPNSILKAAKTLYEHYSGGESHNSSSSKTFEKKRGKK
Description: Mps-1 kinase assay (TR-FRET). Type of experiment: biochemical. As to conditions: GST-tagged human full length recombinant Mps-1; 10 μM ATP; 1 μM peptide substrate; 60 min at 22° C. Put shortly: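 TR-FRET read-out: after 1 h binding at 22° C, Eu-labelled anti-phospho-Ser/Thr antibody transfers to SA-XLent on the phosphorylated biotinylated peptide. The enzyme is GST-tagged full-length human Mps-1, typically about 1 nM final, in the linear range.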
As for `O=C(NC1CC1)c1ccc(-c2cnc3c(NCc4c(F)cccc4F)nc(-c4ccncc4)cn23)cc1` [Example 3-15, N-cyclopropyl-4-{8-[(2,6-difluorobenzyl)amino]-6-(pyridin-4-yl)imidazo [1,2-a]pyrazin-3-yl} benzamide], the pIC50 was 8.57.

Consider `O=C(NC1CC1)c1ccc(-c2cnc3c(NCCCn4ccnc4)nc(-c4ccncc4)cn23)cc1` [Example 3-16, N-cyclopropyl-4-[8-{[3-(1H-imidazol-1-yl)propyl]amino}-6-(pyridin-4-yl)imidazo[1,2-a]pyrazin-3-yl]benzamide], for which the pIC50 is 7.89.

With `O=C(NC1CC1)c1ccc(-c2cnc3c(NCc4ccccn4)nc(-c4ccncc4)cn23)cc1` [Example 3-17, N-cyclopropyl-4-{6-(pyridin-4-yl)-8-[(pyridin-2-ylmethyl)amino]imidazo [1,2-a]pyrazin-3-yl} benzamide], the pIC50 was 8.34. The result for `O=C(NC1CC1)c1ccc(-c2cnc3c(NCc4cccnc4)nc(-c4ccncc4)cn23)cc1` [Example 3-18, N-cyclopropyl-4-{6-(pyridin-4-yl)-8-[(pyridin-3-ylmethyl)amino]imidazo [1,2-a]pyrazin-3-yl} benzamide] reads 8.70.

`O=C(NC1CC1)c1ccc(-c2cnc3c(NCc4ccncc4)nc(-c4ccncc4)cn23)cc1` [Example 3-19, N-cyclopropyl-4-{6-(pyridin-4-yl)-8-[(pyridin-4-ylmethyl)amino]imidazo [1,2-a]pyrazin-3-yl} benzamide]: the negative-log IC50 (pIC50) is 8.68. The result for `O=C(NC1CC1)c1ccc(-c2cnc3c(NCc4ccco4)nc(-c4ccncc4)cn23)cc1` [Example 3-20, N-cyclopropyl-4-{8-[(furan-2-ylmethyl)amino]-6-(pyridin-4-yl)imidazo [1,2-a]pyrazin-3-yl} benzamide] reads 8.46; that for `O=C(NC1CC1)c1ccc(-c2cnc3c(NCC(O)C(F)(F)F)nc(-c4ccncc4)cn23)cc1` (stereo not shown) [Example 3-21, N-cyclopropyl-4-{6-(pyridin-4-yl)-8-[(3,3,3-tri-fluoro-2-hydroxypropyl)amino]imidazo[1,2-a]pyrazin-3-yl}benzamide], 8.80. Take `O=C(NC1CC1)c1ccc(-c2cnc3c(NCCC(F)(F)F)nc(-c4ccncc4)cn23)cc1` [Example 3-22, N-cyclopropyl-4-{6-(pyridin-4-yl)-8-[(3,3,3-trifluoropropyl)amino]imidazo[1,2-a]pyrazin-3-yl}benzamide]: the negative-log IC50 (pIC50) is 8.96. In the case of `CC(O)CNc1nc(-c2ccncc2)cn2c(-c3ccc(C(=O)NC4CC4)cc3)cnc12` (stereo not shown) [Example 3-23, N-cyclopropyl-4-{8-[(2-hydroxypropyl)amino]-6-(pyrdin-4-yl)imidazo [1,2-a]pyrazin-3-yl} benzamide] it was 8.10. The result for `COCCCNc1nc(-c2ccncc2)cn2c(-c3ccc(C(=O)NC4CC4)cc3)cnc12` [Example 3-24, N-cyclopropyl-4-{8-[(3-methoxypropyl)amino]-6-(pyridin-4-yl)imidazo [1,2-a]pyrazin-3-yl} benzamide] reads 8.26; that for `C[S+]([O-])CCNc1nc(-c2ccncc2)cn2c(-c3ccc(C(=O)NC4CC4)cc3)cnc12` (stereo not shown) [Example 3-25, N-cyclopropyl-4-[8-{[2-(methylsulfinyl)ethyl]amino}-6-(pyridin-4-yl)imidazo[1,2-a]pyrazin-3-yl]benzamide], 7.71. In the case of `O=C(NC1CC1)c1ccc(-c2cnc3c(NCC(F)F)nc(-c4ccncc4)cn23)cc1` [Example 3-26, N-cyclopropyl-4-{8-[(2,2-difluoroethyl)amino]-6-(pyridin-4-yl)imidazo [1,2-a]pyrazin-3-yl} benzamide] it was 8.27; in that of `Cn1ccc(CNc2nc(-c3ccncc3)cn3c(-c4ccc(C(=O)NC5CC5)cc4)cnc23)n1` [Example 3-27, N-cyclopropyl-4-[8-{[(1-methyl-1H-pyrazol-3-yl)methyl]amino}-6-(pyridin-4-yl)imidazo [1,2-a]pyrazin-3-yl] benzamide], 8.01; in that of `Cn1nccc1CNc1nc(-c2ccncc2)cn2c(-c3ccc(C(=O)NC4CC4)cc3)cnc12` [Example 3-28, N-cyclopropyl-4-[8-{[(1-methyl-1H-pyrazol-5-yl)methyl]amino}-6-(pyridin-4-yl)imidazo [1,2-a]pyrazin-3-yl] benzamide], 8.55. For `Cn1cc(CNc2nc(-c3ccncc3)cn3c(-c4ccc(C(=O)NC5CC5)cc4)cnc23)cn1` [Example 3-29, N-cyclopropyl-4-[8-{[(1-methyl-1H-pyrazol-4-yl)methyl]amino}-6-(pyridin-4-yl)imidazo [1,2-a]pyrazin-3-yl] benzamide], the pIC50 is 8.25.

In the case of `CCOC(C)CNc1nc(-c2ccncc2)cn2c(-c3ccc(C(=O)NC4CC4)cc3)cnc12` (stereo not shown) [Example 3-30, N-cyclopropyl-4-{8-[(2-ethoxypropyl)amino]-6-(pyridin-4-yl)imidazo [1,2-a]pyrazin-3-yl} benzamide], the pIC50 is 8.15. Turning to `O=C(NC1CC1)c1ccc(-c2cnc3c(NCc4ccc(Cl)s4)nc(-c4ccncc4)cn23)cc1` [Example 3-31, 4-[8-{[(5-chlorothiophen-2-yl)methyl]amino}-6-(pyridin-4-yl)imidazo [1,2-a]pyrazin-3-yl]-N-cyclopropylbenzamide], the negative-log IC50 (pIC50) is 8.64. In the case of `CS(=O)(=O)CCCNc1nc(-c2ccncc2)cn2c(-c3ccc(C(=O)NC4CC4)cc3)cnc12` [Example 3-32, N-cyclopropyl-4-[8-{[3-(methylsulfonyl)propyl]amino}-6-(pyridin-4-yl)imidazo[1,2-a]pyrazin-3-yl]benzamide] it was 7.67; in that of `O=C(NC1CC1)c1ccc(-c2cnc3c(NCCCF)nc(-c4ccncc4)cn23)cc1` [Example 3-33, N-cyclopropyl-4-{8-[(3-fluoropropyl)amino]-6-(pyridin-4-yl)imidazo [1,2-a]pyrazin-3-yl} benzamide], 8.49; in that of `O=C(NC1CC1)c1ccc(-c2cnc3c(NCCc4nccs4)nc(-c4ccncc4)cn23)cc1` [Example 3-34, N-cyclopropyl-4-[6-(pyridin-4-yl)-8-{[2-(1,3-thiazol-2-yl)ethyl]amino}imidazo[1,2-a]pyrazin-3-yl]benzamide], 8.09. As for `NS(=O)(=O)CCNc1nc(-c2ccncc2)cn2c(-c3ccc(C(=O)NC4CC4)cc3)cnc12` [Example 3-35, N-cyclopropyl-4-{6-(pyridin-4-yl)-8-[(2-sulfamoylethyl)amino]imidazo [1,2-a]pyrazin-3-yl} benzamide], the pIC50 was 8.72. Turning to `O=C(NC1CC1)c1ccc(-c2cnc3c(NCC4CCCCO4)nc(-c4ccncc4)cn23)cc1` (stereo not shown) [Example 3-36, N-cyclopropyl-4-{6-(pyridin-4-yl)-8-[(tetrahydro-2H-pyran-2-ylmethyl)amino]imidazo[1,2-a]pyrazin-3-yl} benzamide], the pIC50 was 8.46. With `O=C(NC1CC1)c1ccc(-c2cnc3c(NC[C@@H](O)CO)nc(-c4ccncc4)cn23)cc1` [Example 3-37, N-cyclopropyl-4-{8-[(2,3-dihydroxypropyl)amino]-6-(pyridin-4-yl)imidazo [1,2-a]pyrazin-3-yl}benzamide], the pIC50 was 7.71. In the case of `Cc1cc(-c2cnc3c(NC[C@H](O)C(F)(F)F)nc(-c4ccnn4C)cn23)ccc1C(=O)NC1CC1` [Example 3-38, N-cyclopropyl-2-methyl-4-{6-(1-methyl-1H-pyrazol-5-yl)-8-[(3,3,3-trifluoro-2-hydroxypropyl)amino]imidazo[1,2-a]pyrazin-3-yl}benzamide] it was 8.14. The result for `C=CCNc1nc(-c2ccccc2)cn2c(-c3ccc(C(=O)NC4CC4)cc3)cnc12` [Example 3-39, 4-[8-(Allylamino)-6-phenylimidazo[1,2-a]pyrazin-3-yl]-N-cyclopropylbenzamide] reads 8.44; that for `C=C(C)CNc1nc(-c2ccccc2)cn2c(-c3ccc(C(=O)NC4CC4)cc3)cnc12` [Example 3-40, N-Cyclopropyl-4-{8-[(2-methylprop-2-en-1-yl)amino]-6-phenylimidazo[1,2-a]pyrazin-3-yl}benzamide], 8.43. The result for `O=C(NC1CC1)c1ccc(-c2cnc3c(NCCOCC4CCCO4)nc(-c4ccccc4)cn23)cc1` (stereo not shown) [Example 3-41, N-cyclopropyl-4-(6-phenyl-8-{[2-(tetrahydrofuran-2-ylmethoxy)ethyl]amino}imidazo[1,2-a]pyrazin-3-yl)benzamide] reads 7.69. For the compound `O=C(NC1CC1)c1ccc(-c2cnc3c(NCCCOCC4COCO4)nc(-c4ccccc4)cn23)cc1` (stereo not shown) [Example 3-42, N-cyclopropyl-4-(8-{[3-(1,3-dioxolan-4-ylmethoxy)propyl]amino}-6-phenylimidazo[1,2-a]pyrazln-3-yl)benzamide], the pIC50 was 8.29.
